Test results from patent publication US20150057447A1, “METHOD OF PRODUCING N-PHENYL-N'-PHENYLSULFONYL PIPERAZINE DERIVATIVE AND INTERMEDIATE THEREOF” (priority 2012, published 2015).

Experiments:
Format in all cases: physicochemical
[1] = Evaluation of hygroscopicity by measuring moisture adsorption-desorption isotherm; details: 25° C.; for ratio of mass increase, moisture desorption isotherm: 0% RH; for ratio of mass increase relative to the mass at 0% RH, moisture adsorption isotherm: 95% RH
Description: Moisture adsorption-desorption isotherm is one of means for measuring the adsorption or desorption of moisture. It is a method of measuring the mass change as a function of the relative humidity at constant temperature, and under the conditions where adsorption or desorption is essentially occurring independently of time (equilibrium conditions). Moisture adsorption-desorption isotherm is obtained by plotting relative humidities versus the ratio(%) of the mass increase compared to the mass when the relative humidity of 0%. Accordingly, it is possible to obtain the information about hygroscopicity or dehumidifying nature of the sample.
Moisture adsorption-desorption isotherm of the compounds specified in following (1) to (4) obtained from corresponding examples were measured by the following conditions.
(Operating Method) About 50 mg of the sample was weighted in the mesh stainless-steel sample container, then it was dried at the relative humidity (hereinafter, RH) 0% until the mass change doesn't happen in the device. Temperature and humidity were controlled by the following conditions, and dynamic gravimetric measurement was conducted. Measurement temperature: 25° C. Measurement humidity range: adsorption 0˜95% RH, desorption 95˜0% RH, 5% RH interval Measurement condition: Isotherm condition Herein, isotherm condition means that measurement is move on to next humidity point when the mass change is no longer observed after minimum waiting time or when the equilibrium of mass was not observed until maximum waiting time under constant humidity. The minimum waiting time for equilibrium determination at each humidity: 10 minutes The maximum waiting time for equilibrium determination at each humidity: 2 hours Humidity control: nitrogen and humidification device, 250 mL/minutes (1) Result of the moisture adsorption-desorption isotherm for magnesium bis[5-chloro-2-(1,3-oxazole-2-yl)phenolate] In measuring the moisture adsorption isotherm, in the case of 95% RH, the ratio of mass increase was 2% relative to the mass at 0% RH. In measuring the moisture desorption isotherm, in the case of 0% RH, the ratio of mass increase was 0%. (2) Result of the moisture adsorption-desorption isotherm for calcium bis[5-chloro-2-(1,3-oxazole-2-yl)phenolate] In measuring the moisture adsorption isotherm, in the case of 95% RH, the ratio of mass increase was 3% relative to the mass at 0% RH. In measuring the moisture desorption isotherm, in the case of 0% RH, the ratio of mass increase was 0%.

[2] = Evaluation of sublimation by measuring TG/DTA; details: for sublimation (conclusion from TG/DTA): open system
Procedure: Evaluation of Sublimation by Measuring TG/DTA
(1) 5-Chloro-2-(1,3-oxazole-2-yl)phenol (I-3, 5 mg) which was obtained from the method described in Patent Document 6 was measured, and an aluminum pan was stuffed with it and measured in the open system. The measurement conditions are as follows.
Device: TG/DTA 7200 by SII nano technology Measurement temperature range: 30° C.-200° C. Heating rate: 10° C./minute Purge gas: N2 200 mL/minute
(2) 5-Chloro-2-(1,3-oxazole-2-yl)phenol (I-3, about 10 mg) which was obtained from the method described in Patent Document 6 was measured, and an aluminum pan was stuffed with it and measured in the open system. The measurement conditions are as follows.
Device: TG/DTA 7200 by SII nano technology Measurement temperature, range: 40° C. Measurement time: 720 minutes Purge gas: N2 200 mL/minute
(3) Magnesium bis[5-chloro-2-(1,3-oxazole-2-yl)phenolate (I-2, 5 m g) which was obtained from Example 1(1) was measured, and an aluminum pan was stuffed with it and measured in the open system. The measurement conditions are as follows.
Device: TG/DTA 7200 by SII nano technology Measurement temperature program: 30° C.-200° C. Rate of temperature increase: 10° C./minute Purge gas: N2 200 mL/minute

[3] = Evaluation of sublimation (heating under reduced pressure, flask with condenser tube)
Procedure: 5-Chloro-2-(1,3-oxazole-2-yl)phenol (I-3, 3.01 g, 15.4 mmol) which was obtained from the method described in Patent Document 6 was measured in a round-bottomed flask with condenser tube filled with −15° C. cooling liquid, and heated at 40° C. for 6 hours under the reduced pressure (16˜18 mmHg). After 6 hours, 0.02 g of colorless solids were adhered to the condenser tube. The colorless solids were measured by ^1H-NMR (DMSO-d6), it was confirmed to be 5-chloro-2-(1,3-oxazole-2-yl)phenol (I-3).

Row | Compound | ratio of mass increase, moisture desorption isotherm [1] | ratio of mass increase relative to the mass at 0% RH, moisture adsorption isotherm [1] | sublimation (conclusion from TG/DTA) [2] | melting and weight loss (TG/DTA) ([2]; about 30° C.-about 180° C., program 30° C.-200° C., 10° C./minute, N2 200 mL/minute) | weight loss (TG/DTA, constant temperature) ([2]; 40° C., 720 minutes, solid state, open aluminum pan, N2 200 mL/minute) | weight loss (TG/DTA) ([2]; observed at 40-85° C., range 30° C.-200° C., heating rate 10° C./minute, open aluminum pan, N2 200 mL/minute) | colorless solids adhered to the condenser tube ([3]; 3.01 g heated at 40° C. for 6 hours under reduced pressure (16~18 mmHg), condenser at -15° C.) | sublimation (conclusion from reduced pressure heating test) ([3]; 40° C., 6 hours, 16~18 mmHg)
1 | calcium bis[5-chloro-2-(1,3-oxazole-2-yl)phenolate] [Compound I-7] | 0% | 3% |  |  |  |  |  | 
2 | magnesium bis[5-chloro-2-(1,3-oxazole-2-yl)phenolate] [Compound I-2] | 0% | 2% | doesn't have sublimation | not observed |  |  |  | 
3 | Oc1cc(Cl)ccc1-c1ncco1 [Compound I-3, 5-chloro-2-(1,3-oxazole-2-yl)phenol] |  |  | has sublimation |  | 1.6% | 0.38% | 0.02 g | has sublimation
